Laboratory results reported in PubChem BioAssay (NCI).
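Five compound concentrations were applied to cells in 96-well plates for 48 hours; endpoints were derived by simple linear interpolation of the resulting dose-response curve. TGI is the concentration that stops growth completely.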

What was measured:
Experiment in all cases: NCI tumour cell line growth inhibition, 48 h
OVCAR-4 ovarian = test system: OVCAR-4 ovarian
CCRF-CEM leukemia = test system: CCRF-CEM leukemia
786-0 renal = test system: 786-0 renal
RXF-631 renal = test system: RXF-631 renal
U251 CNS = test system: U251 CNS
XF 498 CNS = test system: XF 498 CNS
IGROV1 ovarian = test system: IGROV1 ovarian
HCC-2998 colon = test system: HCC-2998 colon
SNB-19 CNS = test system: SNB-19 CNS
MALME-3M melanoma = test system: MALME-3M melanoma
SK-MEL-5 melanoma = test system: SK-MEL-5 melanoma
SK-MEL-28 melanoma = test system: SK-MEL-28 melanoma
NCI-H23 lung = test system: NCI-H23 lung
SNB-75 CNS = test system: SNB-75 CNS
A498 renal = test system: A498 renal
KM20L2 colon = test system: KM20L2 colon
SNB-78 CNS = test system: SNB-78 CNS
SK-OV-3 ovarian = test system: SK-OV-3 ovarian
M19-MEL melanoma = test system: M19-MEL melanoma
RPMI-8226 leukemia = test system: RPMI-8226 leukemia
K-562 leukemia = test system: K-562 leukemia
TK-10 renal = test system: TK-10 renal
KM12 colon = test system: KM12 colon
RXF 393 renal = test system: RXF 393 renal
SF-539 CNS = test system: SF-539 CNS
UACC-257 melanoma = test system: UACC-257 melanoma
SF-268 CNS = test system: SF-268 CNS
DMS 114 small cell lung = test system: DMS 114 small cell lung
SF-295 CNS = test system: SF-295 CNS
HCT-15 colon = test system: HCT-15 colon
ACHN renal = test system: ACHN renal
UO-31 renal = test system: UO-31 renal
DMS 273 small cell lung = test system: DMS 273 small cell lung
NCI-H460 lung = test system: NCI-H460 lung
UACC-62 melanoma = test system: UACC-62 melanoma
SW-620 colon = test system: SW-620 colon
LXFL 529 NSCLC = test system: LXFL 529 NSCLC
EKVX NSCLC = test system: EKVX NSCLC
SK-MEL-2 melanoma = test system: SK-MEL-2 melanoma
MOLT-4 leukemia = test system: MOLT-4 leukemia
HOP-62 NSCLC = test system: HOP-62 NSCLC
OVCAR-3 ovarian = test system: OVCAR-3 ovarian
SN12C renal = test system: SN12C renal
HCT-116 colon = test system: HCT-116 colon
A549 NSCLC = test system: A549 NSCLC
COLO 205 colon = test system: COLO 205 colon
M14 melanoma = test system: M14 melanoma
LOX IMVI melanoma = test system: LOX IMVI melanoma
OVCAR-5 ovarian = test system: OVCAR-5 ovarian
OVCAR-8 ovarian = test system: OVCAR-8 ovarian
DLD-1 colon = test system: DLD-1 colon
CAKI-1 renal = test system: CAKI-1 renal
HT29 colon = test system: HT29 colon
HOP-18 NSCLC = test system: HOP-18 NSCLC
SR leukemia = test system: SR leukemia
NCI-H226 lung = test system: NCI-H226 lung
HL-60(TB) leukemia = test system: HL-60(TB) leukemia
HOP-92 NSCLC = test system: HOP-92 NSCLC
NCI-H522 lung = test system: NCI-H522 lung

Measured: TGI

O=C1Nc2nc3ccccc3n2N=C2CCCC12 (stereo unspecified)
not listed: HOP-18 NSCLC | SR leukemia | NCI-H226 lung | HL-60(TB) leukemia | HOP-92 NSCLC | NCI-H522 lung
> 100 µM: all other assays above

Nc1ccccc1S(=O)(=O)c1ccccc1
not listed: 786-0 renal | XF 498 CNS | SNB-78 CNS | CAKI-1 renal | NCI-H522 lung
> 100 µM: all other assays above

O=C1NC2(CCCCCC2)C2CCCCCCC12O (stereo unspecified)
not listed: RXF-631 renal | HCC-2998 colon | KM20L2 colon | RPMI-8226 leukemia | NCI-H226 lung
> 100 µM: all other assays above
